Assay results published in the NIST ThermoML archive (doi:10.1016/j.jct.2006.06.008).
Numbers after ± are expanded uncertainties.

Test: xn = mol fraction of the nth substance listed
Settings: 101 kPa, Liquid

C1CCCC1 [cyclopentane] + CCCO
Settings	mass density, 293.15 K [kg/m3]	mass density, 298.15 K [kg/m3]	mass density, 303.15 K [kg/m3]	speed of sound, 293.15 K [m/s]	speed of sound, 298.15 K [m/s]	speed of sound, 303.15 K [m/s]	viscosity, 293.15 K [mPa·s]	viscosity, 298.15 K [mPa·s]	viscosity, 303.15 K [mPa·s]
x1 = 0.0461	800.15 ± 0.56	796.09 ± 0.57	791.98 ± 0.57	1219 ± 2	1202 ± 2	1184 ± 2	2.035 ± 0.049	1.809 ± 0.044	1.613 ± 0.04
x1 = 0.09	796.74 ± 0.57	792.61 ± 0.57	788.44 ± 0.58	1216 ± 2	1198 ± 2	1180 ± 2	1.859 ± 0.045	1.655 ± 0.04	1.479 ± 0.036
x1 = 0.1885	789.64 ± 0.58	785.36 ± 0.58	781.04 ± 0.59	1209 ± 2	1190 ± 2	1171 ± 2	1.571 ± 0.038	1.406 ± 0.035	1.275 ± 0.032
x1 = 0.2951	782.12 ± 0.59	777.69 ± 0.59	773.21 ± 0.6	1204 ± 2	1183 ± 2	1163 ± 2	1.284 ± 0.032	1.159 ± 0.029	1.052 ± 0.027
x1 = 0.4056	774.79 ± 0.6	770.22 ± 0.6	765.59 ± 0.61	1200 ± 2	1178 ± 2	1157 ± 2	1.057 ± 0.027	0.961 ± 0.025	0.875 ± 0.023
x1 = 0.5051	768.67 ± 0.6	763.96 ± 0.61	759.2 ± 0.62	1199 ± 2	1176 ± 2	1153 ± 2	0.867 ± 0.023	0.79 ± 0.021	0.725 ± 0.019
x1 = 0.61	762.67 ± 0.61	757.84 ± 0.62	752.96 ± 0.62	1199 ± 2	1175 ± 2	1152 ± 2	0.712 ± 0.019	0.656 ± 0.018	0.608 ± 0.017
x1 = 0.7109	757.16 ± 0.62	752.26 ± 0.63	747.29 ± 0.63	1200 ± 2	1176 ± 2	1152 ± 2	0.594 ± 0.016	0.553 ± 0.015	0.514 ± 0.014
x1 = 0.8225	751.67 ± 0.63	746.7 ± 0.63	741.66 ± 0.64	1206 ± 2	1181 ± 2	1156 ± 2	0.507 ± 0.014	0.476 ± 0.014	0.448 ± 0.013
x1 = 0.9134	747.4 ± 0.63	742.5 ± 0.64	737.43 ± 0.64	1214 ± 2	1188 ± 2	1163 ± 2	0.46 ± 0.013	0.434 ± 0.013	0.41 ± 0.012
x1 = 0.9532	745.94 ± 0.63	740.91 ± 0.64	735.84 ± 0.65	1219 ± 2	1193 ± 2	1168 ± 2	0.447 ± 0.013	0.422 ± 0.012	0.4 ± 0.012
x1 = 1	744.52 ± 0.63	739.55 ± 0.64	734.54 ± 0.65	1232 ± 2	1206 ± 2	1180 ± 2	0.439 ± 0.013	0.416 ± 0.012	0.394 ± 0.012

C1CCCCC1 [cyclohexane] + CCO
Settings	mass density, 293.15 K [kg/m3]	mass density, 298.15 K [kg/m3]	mass density, 303.15 K [kg/m3]	speed of sound, 293.15 K [m/s]	speed of sound, 298.15 K [m/s]	speed of sound, 303.15 K [m/s]	viscosity, 293.15 K [mPa·s]	viscosity, 298.15 K [mPa·s]	viscosity, 303.15 K [mPa·s]
x1 = 0.0473	787 ± 0.46	782.65 ± 0.47	778.29 ± 0.48	1162 ± 3	1144 ± 2	1127 ± 2	1.148 ± 0.028	1.046 ± 0.026	0.956 ± 0.024
x1 = 0.096	784.97 ± 0.47	780.6 ± 0.47	776.2 ± 0.48	1165 ± 3	1147 ± 2	1129 ± 2	1.102 ± 0.027	1.009 ± 0.025	0.922 ± 0.023
x1 = 0.2043	781.33 ± 0.47	776.87 ± 0.48	772.37 ± 0.49	1174 ± 3	1155 ± 3	1135 ± 2	1.051 ± 0.026	0.954 ± 0.024	0.875 ± 0.022
x1 = 0.3028	779.4 ± 0.48	774.86 ± 0.48	770.28 ± 0.49	1184 ± 3	1164 ± 3	1144 ± 2	1.005 ± 0.025	0.918 ± 0.023	0.838 ± 0.021
x1 = 0.3979	778.2 ± 0.48	773.6 ± 0.48	768.95 ± 0.49	1195 ± 3	1174 ± 3	1153 ± 3	0.978 ± 0.024	0.893 ± 0.023	0.818 ± 0.021
x1 = 0.5027	777.4 ± 0.48	772.73 ± 0.49	768 ± 0.49	1208 ± 3	1186 ± 3	1164 ± 3	0.954 ± 0.024	0.87 ± 0.022	0.796 ± 0.021
x1 = 0.5939	776.98 ± 0.48	772.26 ± 0.49	767.49 ± 0.49	1219 ± 3	1196 ± 3	1174 ± 3	0.934 ± 0.024	0.853 ± 0.022	0.781 ± 0.02
x1 = 0.7051	776.79 ± 0.48	772.03 ± 0.49	767.22 ± 0.49	1232 ± 3	1209 ± 3	1186 ± 3	0.915 ± 0.023	0.836 ± 0.021	0.769 ± 0.02
x1 = 0.8055	776.89 ± 0.48	772.11 ± 0.49	767.28 ± 0.49	1245 ± 3	1221 ± 3	1197 ± 3	0.908 ± 0.023	0.833 ± 0.021	0.769 ± 0.02
x1 = 0.9041	777.3 ± 0.48	772.5 ± 0.49	767.8 ± 0.49	1258 ± 3	1235 ± 3	1211 ± 3	0.923 ± 0.023	0.846 ± 0.022	0.778 ± 0.02
x1 = 0.9534	777.74 ± 0.48	772.98 ± 0.49	768.18 ± 0.49	1267 ± 3	1242 ± 3	1218 ± 3	0.941 ± 0.024	0.862 ± 0.022	0.793 ± 0.02
x1 = 1	778.62 ± 0.48	773.92 ± 0.48	769.19 ± 0.49	1279 ± 3	1254 ± 3	1230 ± 3	0.968 ± 0.024	0.887 ± 0.022	0.816 ± 0.021

C1CCCCC1 [cyclohexane] + CCCO
Settings	mass density, 293.15 K [kg/m3]	mass density, 298.15 K [kg/m3]	mass density, 303.15 K [kg/m3]	speed of sound, 293.15 K [m/s]	speed of sound, 298.15 K [m/s]	speed of sound, 303.15 K [m/s]	viscosity, 293.15 K [mPa·s]	viscosity, 298.15 K [mPa·s]	viscosity, 303.15 K [mPa·s]
x1 = 0.0487	801.17 ± 0.55	797.11 ± 0.56	793.02 ± 0.56	1222 ± 2	1205 ± 2	1187 ± 2	2.079 ± 0.05	1.842 ± 0.044	1.645 ± 0.04
x1 = 0.0993	798.82 ± 0.55	794.71 ± 0.55	790.56 ± 0.56	1222 ± 2	1204 ± 2	1186 ± 2	1.958 ± 0.047	1.74 ± 0.042	1.552 ± 0.038
x1 = 0.1967	794.76 ± 0.53	790.54 ± 0.54	786.28 ± 0.55	1223 ± 2	1204 ± 2	1185 ± 2	1.735 ± 0.042	1.544 ± 0.038	1.379 ± 0.034
x1 = 0.2993	791.11 ± 0.52	786.78 ± 0.53	782.41 ± 0.54	1225 ± 2	1205 ± 2	1185 ± 2	1.544 ± 0.037	1.38 ± 0.034	1.234 ± 0.031
x1 = 0.4017	787.98 ± 0.51	783.54 ± 0.52	779.05 ± 0.53	1228 ± 2	1207 ± 2	1186 ± 2	1.391 ± 0.034	1.249 ± 0.031	1.124 ± 0.028
x1 = 0.5071	785.25 ± 0.5	780.71 ± 0.51	776.12 ± 0.52	1233 ± 2	1211 ± 2	1189 ± 2	1.253 ± 0.031	1.126 ± 0.028	1.015 ± 0.026
x1 = 0.6048	783.08 ± 0.5	778.47 ± 0.5	773.8 ± 0.51	1238 ± 2	1215 ± 2	1193 ± 2	1.135 ± 0.028	1.026 ± 0.026	0.937 ± 0.024
x1 = 0.7036	781.23 ± 0.49	776.55 ± 0.5	771.82 ± 0.5	1244 ± 2	1221 ± 2	1198 ± 2	1.036 ± 0.026	0.941 ± 0.024	0.858 ± 0.022
x1 = 0.8062	779.66 ± 0.49	774.94 ± 0.49	770.17 ± 0.5	1252 ± 2	1228 ± 2	1204 ± 2	0.98 ± 0.025	0.895 ± 0.023	0.822 ± 0.021
x1 = 0.9053	778.68 ± 0.48	773.93 ± 0.49	769.14 ± 0.5	1262 ± 2	1237 ± 2	1213 ± 2	0.972 ± 0.024	0.887 ± 0.022	0.816 ± 0.021
x1 = 0.9522	778.41 ± 0.48	773.66 ± 0.49	768.87 ± 0.49	1268 ± 2	1243 ± 2	1219 ± 2	0.969 ± 0.024	0.892 ± 0.023	0.81 ± 0.021
x1 = 1	778.62 ± 0.48	773.92 ± 0.48	769.19 ± 0.49	1279 ± 2	1254 ± 2	1230 ± 2	0.968 ± 0.024	0.887 ± 0.022	0.816 ± 0.021
